Counter-ions that a name gives are not always drawn.
Tests used:
[1] = test system: glomerular nephritis model in rats; conditions: Kidney Int 1998, 53(5) 1314-20; cited from earlier work
[2] = test system: patients suffering from diabetic nephropathy; conditions: Nephron 2002, 92(4): 788-96; cited from earlier work
[3] = test system: WKY rats with nephritis induced by rabbit anti-rat glomerular basement membrane antiserum; assay: nephritis-induced renal failure model in rats, mortality / survival rate; format: in vivo; conditions: Example 7, FIG. 2; candesartan cilexetil 10 mg/kg OAD and/or beraprost sodium 100 μg/kg BID; compared with the control group
Protocol: To 9-week old WKY rats, rabbit anti-rat glomerular basement membrane antiserum was administered to induce nephritis. At two weeks after administering the antiserum, the animals were divided into the following 4 groups and medication was started. • 1) Control Group: 0.5% CMC(OAD)+distilled water (BID), n=11 • 2) Candesartan Group (Comparative Example): candesartan cilexetil 10 mg/kg (OAD)+distilled water (BID), n=11 • 3) BPS Group (Comparative Example): 0.5% CMC(OAD)+beraprost sodium 100 μg/kg (BID), n=11 • 4) Candesartan+BPS Group (this disclosure): candesartan cilexetil 10 mg/kg (OAD)+beraprost sodium 100 μg/kg (BID), n=12

[4] = test system: WKY rats with nephritis induced by rabbit anti-rat glomerular basement membrane antiserum (renal failure stage); assay: nephritis-induced renal failure model in rats, blood creatinine level; format: in vivo; conditions: for effect to suppress the progress of nephritis (raise in the blood creatinine level) / effect to suppress the progress of nephropathy (blood creatinine level): Example 1, FIG. 1; for effect to suppress the progress of nephritis (raise in the blood creatinine level): beraprost sodium 100 μg/kg BID and/or candesartan cilexetil 10 mg/kg OAD; for effect to suppress the progress of nephritis (raise in the blood creatinine level) / effect to suppress the progress of renal failure: compared with the control group; for effect to suppress the progress of nephropathy (blood creatinine level): increased dosage alone: beraprost sodium 300 μg/kg BID or candesartan cilexetil 30 mg/kg OAD, compared with BPS100+candesartan10 group; for blood creatinine level at 7 weeks after induction: started 2 weeks after antiserum
Protocol: After the start of the medication, blood was collected at one week intervals, and blood creatinine level was measured. To 9-week old WKY rats, rabbit anti-rat glomerular basement membrane antiserum was administered to induce nephritis. […] To 9-week old WKY rats, rabbit anti-rat glomerular basement membrane antiserum was administered to induce nephritis. […] At six weeks after the induction, blood creatinine level was measured to assess the progress of renal failure. […] To 9-week old WKY rats, rabbit anti-rat glomerular basement membrane antiserum was administered to induce nephritis. […] After the start of the medication, blood was collected at one week intervals, and blood creatinine level was measured. The data were plotted taking the reciprocal of the blood creatinine level measured for five weeks after the start of the medication along the ordinate and taking the time along the abscissa, and the slope of the regression line was defined as the rate of progress of renal failure of each animal. To 9-week old WKY rats, rabbit anti-rat glomerular basement membrane antiserum was administered to induce nephritis. […] After the start of the medication, blood was collected at one week intervals, and blood creatinine level was measured. The data were plotted taking the reciprocal of the blood creatinine level measured for five weeks after the start of the medication along the ordinate and taking the time along the abscissa, and the slope of the asymptote was defined as the rate of progress of renal failure of each animal. To 9-week old WKY rats, rabbit anti-rat glomerular basement membrane antiserum was administered to induce nephritis. […] After the start of the medication, blood was collected at one week intervals, and blood creatinine level was measured. The data were plotted taking the reciprocal of the blood creatinine level measured for six weeks after the start of the medication along the ordinate and taking the time along the abscissa, and the slope of the asymptote was defined as the rate of progress of renal failure of each animal.

[5] = test system: patients suffering from diabetic nephropathy; conditions: N Engl J Med 2001, 345(12): 861-9; cited from earlier work
[6] = test system: diabetic nephritis induced by streptozotocin in rats; conditions: J Hypertens Suppl 1993; 11 Suppl 5: S208-9; cited from earlier work
[7] = test system: renal dysfunction induced by uninephrectomy and by loading high sodium and high protein; conditions: Am J Hypertens 1997 10: 209-16; cited from earlier work
[8] = test system: diabetes mellitus model in rats; conditions: each drug individually or in combination, versus control group; Am J Hypertens 1997 10: 202-208; cited from earlier work
[9] = test system: anti-Thyl-induced nephritis model; conditions: Am J Pathol 1993; 142(2): 441-50; cited from earlier work
[10] = test system: diabetic nephropathy; conditions: compared with blood pressure control by a calcium antagonist; N Engl J Med 2001; 345(12): 851-60; cited from earlier work
[11] = Example 2, during medication, telmisartan 40 mg/kg OAD and/or beraprost sodium 100 μg/kg BID
[12] = Example 2, telmisartan 40 mg/kg OAD and/or beraprost sodium 100 μg/kg BID, mean ± S.E.
[13] = Example 3, losartan 30 mg/kg BID and/or beraprost sodium 100 μg/kg BID
[14] = Example 3, losartan 30 mg/kg BID and/or beraprost sodium 100 μg/kg BID, mean ± S.E.
[15] = Example 4, enalapril maleate 10 mg/kg OAD and/or beraprost sodium 100 μg/kg BID
[16] = Example 4, enalapril maleate 10 mg/kg OAD and/or beraprost sodium 100 μg/kg BID, mean ± S.E.
[17] = Example 4, slope of regression line of reciprocal blood creatinine over five weeks of medication, enalapril maleate 10 mg/kg OAD and/or beraprost sodium 100 μg/kg BID, mean ± S.E.
[18] = Example 5, lisinopril 10 mg/kg OAD and/or beraprost sodium 100 μg/kg BID
[19] = Example 5, lisinopril 10 mg/kg OAD and/or beraprost sodium 100 μg/kg BID, mean ± S.E.
[20] = Example 5, slope of reciprocal blood creatinine over five weeks of medication, lisinopril 10 mg/kg OAD and/or beraprost sodium 100 μg/kg BID, mean ± S.E.
[21] = Example 6, perindopril erbumine 10 mg/kg OAD and/or beraprost sodium 100 μg/kg BID
[22] = Example 6, slope of reciprocal blood creatinine over six weeks of medication, perindopril erbumine 10 mg/kg OAD and/or beraprost sodium 100 μg/kg BID

CC#CCC(C)[C@H](O)/C=C/[C@@H]1[C@H]2c3cccc(CCCC(=O)[O-])c3O[C@H]2C[C@H]1O.[Na+] (stereo partly drawn) [BPS, beraprost sodium]
urinary protein [1]: decreases urinary protein
urinary protein [2]: decreases urinary protein
mortality rate / survival rate [3]: no difference
effect to suppress the progress of nephritis (raise in the blood creatinine level) [4]: almost no difference
effect to suppress the progress of nephropathy (blood creatinine level) [4]: smaller than that observed in BPS100+candesartan10 group
effect to suppress the progress of renal failure [4, 11]: almost no difference
blood creatinine level at 7 weeks after induction [4, 12]: 1.56 ± 0.76 mg/dL
effect to suppress the progress of renal failure [4, 13]: no difference
blood creatinine level at 6 weeks after induction [4, 14]: 0.93 ± 0.18 mg/dL
effect to suppress the progress of renal failure [4, 15]: no difference
blood creatinine level at 6 weeks after induction [4, 16]: 0.93 ± 0.18 mg/dL
rate of progress of renal failure [4, 17]: 0.32 ± 0.04 dL/mg × week
effect to suppress the progress of renal failure [4, 18]: almost no difference
blood creatinine level at 6 weeks after induction [4, 19]: 1.49 ± 0.59 mg/dL
rate of progress of renal failure [4, 20]: 0.37 ± 0.07 dL/mg × week
blood creatinine level at 6 weeks after induction [4, 21]: 0.93 ± 0.18 mg/dL
effect to suppress the progress of renal failure [4, 21]: tendency to suppress the progress of renal failure
rate of progress of renal failure [4, 22]: 0.29 ± 0.03 dL/mg × week

CCOC(=O)[C@H](CCc1ccccc1)N[C@@H](C)C(=O)N1CCC[C@H]1C(=O)O [Enalapril, enalapril maleate]
effect to suppress the progress of renal failure [4, 15]: no difference
blood creatinine level at 6 weeks after induction [4, 16]: 1.83 ± 0.44 mg/dL
rate of progress of renal failure [4, 17]: 0.41 ± 0.04 dL/mg × week

NCCCC[C@H](N[C@@H](CCc1ccccc1)C(=O)O)C(=O)N1CCC[C@H]1C(=O)O [Lisinopril, lisinopril]
effect to suppress the progress of renal failure [4, 18]: almost no difference
blood creatinine level at 6 weeks after induction [4, 19]: 1.20 ± 0.34 mg/dL
rate of progress of renal failure [4, 20]: 0.39 ± 0.08 dL/mg × week

CCCCc1nc(Cl)c(CO)n1Cc1ccc(-c2ccccc2-c2nn[nH]n2)cc1 [Losartan, losartan]
risk-lowering rate (doubling time of creatinine, dialysis, complicated risk of death) [5]: 16.1%
effect to suppress the progress of renal failure [4, 13]: no difference
blood creatinine level at 6 weeks after induction [4, 14]: 1.94 ± 0.61 mg/dL

CCC[C@H](N[C@@H](C)C(=O)N1[C@H](C(=O)O)C[C@@H]2CCCC[C@@H]21)C(=O)OCC [Perindopril, perindopril erbumine]
blood creatinine level at 6 weeks after induction [4, 21]: 1.09 ± 0.42 mg/dL
effect to suppress the progress of renal failure [4, 21]: tendency to suppress the progress of renal failure
rate of progress of renal failure [4, 22]: 0.30 ± 0.05 dL/mg × week

CCCc1nc2c(C)cc(-c3nc4ccccc4n3C)cc2n1Cc1ccc(-c2ccccc2C(=O)O)cc1 [Telmisartan, telmisartan]
effect to suppress the progress of renal failure [4, 11]: suppressed
blood creatinine level at 7 weeks after induction [4, 12]: 0.93 ± 0.43 mg/dL
blood creatinine level at 8 weeks after induction (1 week after the end of the medication) [4, 12]: 1.18 ± 0.80 mg/dL
progress of renal failure / blood creatinine level at one week after the end of the medication ([4]; Example 2, telmisartan 40 mg/kg OAD with or without beraprost sodium 100 μg/kg BID): renal failure was progressed

CCOc1nc2cccc(C(=O)OC(C)OC(=O)OC3CCCCC3)c2n1Cc1ccc(-c2ccccc2-c2nn[nH]n2)cc1 (stereo not drawn) [candesartan, candesartan cilexetil]
mortality rate / survival rate [3]: no difference
effect to suppress the progress of nephritis (raise in the blood creatinine level) [4]: almost no difference
effect to suppress the progress of nephropathy (blood creatinine level) [4]: smaller than that observed in BPS100+candesartan10 group

CCC#CC[C@H](C)[C@H](O)C#C[C@@H]1[C@H]2C/C(=C/COCC(=O)O)C[C@H]2C[C@H]1O [cicaprost]
suppression of diabetic nephritis [6]: suppressed
suppression of renal dysfunction [7]: suppressed
renal function parameters such as urinary protein, damage of renal tissue [8]: less severe

CC#CCC(C)[C@H](O)/C=C/[C@@H]1[C@H]2C/C(=C/CCCC(=O)O)C[C@H]2C[C@H]1O (stereo partly drawn) [iloprost]
urinary protein [9]: decreased urinary protein

CCCCC1=NC2(CCCC2)C(=O)N1Cc1ccc(-c2ccccc2-c2nnn[nH]2)cc1 [irbesartan]
effect of suppressing the progress of diabetic nephropathy [10]: superior

Reference: patent publication US9546145B2, “Combination therapy for the treatment of chronic renal failure with an angiotensin II receptor antagonist and beraprost” (Toray Industries, Inc., priority 2003, dated 2017)
